Test results from US20210177722A1, “Phytic Acid Ester Derivative” (NATIONAL UNIVERSITY CORPORATION KUMAMOTO UNIVERSITY, priority 2018, published 2021).

How the values were obtained:
[1] = system: AMPK; assay: Western blotting (2), anti-pAMPK antibody, Jurkat cell; type: cell-based, human; details: 1 μM or 10 μM, 8 hours or 24 hours
Procedure: In this example, in the same manner as in Example 4, the action mechanism for killing cells by Pro-IP6 was checked by Wester blotting using a Jurkat cell and various antibodies. Jurkat cells (1×10^5 cells/well, culture fluid: 500 μL) were seeded in a 24-well plate to be cultured overnight. Thereafter, DMSO (1%, Fujifilm Wako Pure Chemical Corporation), an aqueous solution (1%) of IP6 (final concentration 10 μM, Sigma Aldrich), or a DMSO solution (1%) of Pro-IP6 (final concentration: 1 μM or 10 μM) was added thereto, followed by culturing for 8 hours or 24 hours. A supernatant was removed, the resultant was washed with 1× PBS (−) once, Laemmli sample buffer was added thereto, and the resultant was boiled at 100° C. for […] to dissolve the cells. The resultant was subjected to electrophoresis and then transferred onto a membrane (Millipore). […] Detection was performed using ImmunoStar LD (Fujfilm Wako Pure Chemical Corporation).

[2] = system: HeLa cell; assay: Quantitative determination of IP6 in cell (LC/MS of IP6 methyl ester); type: cell-based; details: HeLa cells, 10 μM, 30 minutes
Procedure: In this example, incorporation of Pro-IP6 into a HeLa cell was quantitatively determined.
HeLa cells (5×10^5 cells/well, culture fluid: 1 mL) were seeded in a 3.5 cm dish to be cultured for 24 hours. Thereafter, DMSO (1%, Fujifilm Wako Pure Chemical Corporation), an aqueous solution (1%) of IP6 (final concentration: 10 μM, Sigma Aldrich), or a DMSO solution (1%) of Pro-IP6 (final concentration: 10 μM) synthesized in Example 1 was added thereto, and the resultant was cultured for another 30 minutes. HeLa cells were cultured with neither IP6 nor Pro-IP6 added, followed by adding the same amount of DMSO thereto, and the resultant was used as a negative control.
Thereafter, the resultant was washed with 1× PBS (−) once, and the resultant cells were scraped with a cell scraper, transferred to a 1.5 mL tube, and washed with 1× PBS (−) three times. To the thus obtained precipitate, 350 μl of MeOH (Fujifilm Wako Pure Chemical Corporation) and 1% NP-40 (Nacalai Tesque, Inc.) were added, followed by sonication (10 minutes). After equilibrating a column (Oasis WAX 1cc, Waters) with MeOH (1 mL) and H2O (1 mL), a disrupted cell extract was added thereto. Thereafter, the column was washed with 50% MeOH (1 mL), and eluted with 50% MeOH (200 μL×2) containing 2 mol/L of HCl (Fujifilm Wako Pure Chemical Corporation). The thus obtained eluate was concentrated, and dissolved in MeOH (50 μL), and trimethylsilyldiazomethane (200 μl, Tokyo Chemical Industry Co., Ltd.) was added thereto, followed by stirring at 50° C. for 1 hour under argon atmosphere. The reaction was stopped by adding H2O (100 μL). Through a reaction of trimethylsilyidiazomethane with IP6, IP6 methyl ester is obtained.
The thus obtained sample (IP6 methyl ester) was measured by LC/MS [column: MastroC18 2.1 mm×100 mm, […] (Shimadzu GLC Ltd.), mobile phase: 0.1% formic acid solution (Fujifilm Wako Pure Chemical Corporation), acetonitrile (Fujifilm Wako Pure Chemical Corporation)] [LC:LC-20AD (Shimadzu), MS: amaZon speed (BRUKER)].

[3] = system: MT-2 cell (HTLV transformed human T cell leukemia cell); assay: MTT assay, MT-2 cell; type: cell-based; details: 1 μM or 10 μM, 8 hours or 24 hours
Procedure: (§1) In this example, the cytotoxic effect of Pro-IP6 on four types of blood cancer cell lines and a cell derived from a healthy person was examined by MTT assay. […] It is possible to check viability of cultured cells by MTT assay. Cancer cell lines (1.74×10^4 cells/well, culture fluid: 200 μL) • MT-2 cell (HTLV transformed human T cell leukemia cell) • […] cell (human T-lymphoblastoid cell) • Jurkat cell (human T-lymphocyte cell) • K562 cell (chronic myelogenous leukemia cell) Each of the above-described types of cells was seeded in a 96-well plate, and was cultured for 8 hours for each of the various cancer cell lines and for 16 hours for PMBC. Thereafter, DMSO (1%, Fujifilm Wako Pure Chemical Corporation), an aqueous solution (1%) of IP6 (final concentration: 1 μM or 10 μM, Sigma Aldrich), or a DMSO solution (1%) of Pro-IP6 (final concentration: 1 μM or 10 μM) was added thereto, followed by culturing for 8 hours or 24 hours. An MTT reagent (Dojindo Laboratories, 1.1 mg/mL) was added in an amount of 50 μL per well, and the resultant was cultured for another 4 hours. The thus precipitated crystal was collected, a supernatant was removed, and 100 μL of DMSO was added thereto to completely dissolve. The resultant solution was measured for an absorbance (550 nm).

[4] = molecular target: T1, virus protein Gag (Human immunodeficiency virus type 1 group M subtype B, UniProt P12493); assay: Intracellular aggregation of virus protein Gag (fluorescence microscope); type: cell-based; details: HeLa cells, 10 μM, 4 hours
T1 construct: aggregation of virus protein Gag or the MA region thereof; Venus; FLAG (C); expressed in transfected cells; host or cells: HeLa cells
Procedure: HeLa cells (0.5×10^5 cells/well, culture fluid: 300 μL) were seeded in a 8-well chamber slide (Thermo fisher scientific) to be cultured overnight. […] (Thermo fisher scientific) was used to introduce pUC or pEF-Gag(p17)cFLAG, pNL4-3/Gag-Venus, and the resultant was cultured for 10 hours. Thereafter, DMSO (1%, Fujifilm Wako Pure Chemical Corporation) or Pro-IP6 (final concentration: 10 μM) was added thereto, followed by culturing for another 4 hours. The thus obtained cells were fixed with 4% paraformaldehyde (Tokyo Chemical Industry Co., Ltd.), dyed with Hoechst 33342 (Thermo fisher scientific), and observed with a fluorescence microscope, BZ-X800 (Keyence).

[5] = system: Jurkat cell; assay: Cell viability test (flowcytometry, Annexin V-FITC / 7-AAD); type: cell-based, human; details: 10 μM, 24 hours
Procedure: In this example, a cell viability test (flowcytometry) was performed using a Jurkat cell, that is, a human T cell-derived leukemia cell. Jurkat cells (1×10^5 cells/well, culture fluid: 500 μL) were seeded in a 24-well plate (Iwaki) to be cultured overnight. Thereafter, DMSO (1%, Fujifilm Wako Pure Chemical Corporation), an aqueous solution (1%) of IP6 (final concentration: 10 μM, Sigma Aldrich), or a DMSO solution (1%) of Pro-IP6 (myo-inositol hexaphosphate dodecakis(butyryloxymethyl) ester (4) synthesized in Example 1) (final concentration: 10 μM) was added thereto, and the resultant was cultured for 24 hours. A supernatant was removed, the resultant was washed with 1× PBS (−) once, 100 μL of 5× binding solution (PromoCell) was added thereto, and Annexin V-FITC (PromoCell) and 7-AAD (Becton, Dickinson and Company) were added thereto to perform a reaction for 15 minutes. Thereafter, measurement was performed using FACS Calibur (Becton, Dickinson and Company), and analysis was performed using FlowJo (Becton, Dickinson and Company).

[6] = system: Jurkat cell (human T-lymphocyte cell); assay: MTT assay, Jurkat cell; type: cell-based
Procedure: as §1

CCCC(=O)OCOP(=O)(OCOC(=O)CCC)O[C@H]1[C@H](OP(=O)(OCOC(=O)CCC)OCOC(=O)CCC)[C@@H](OP(=O)(OCOC(=O)CCC)OCOC(=O)CCC)[C@H](OP(=O)(OCOC(=O)CCC)OCOC(=O)CCC)[C@@H](OP(=O)(OCOC(=O)CCC)OCOC(=O)CCC)[C@H]1OP(=O)(OCOC(=O)CCC)OCOC(=O)CCC [Pro-IP6, myo-inositol hexaphosphate dodecakis(butyryloxymethyl) ester]
activation of AMPK (pAMPK) [1]: activates AMPK
incorporation into HeLa cell (IP6 methyl ester by LC/MS vs negative control) [2]: well incorporated
amount of IP6 methyl ester observed in cell relative to that of IP6 ([2]; LC/MS): not less than 200 times
lowering of relative cell viability [3]: ≥ 25%
aggregation of virus protein Gag or MA region in cell [4]: aggregated
induction of apoptosis (Annexin V-FITC / 7-AAD flow cytometry) [5]: induction of apoptosis in a Jurkat cell, that is, human T cell-derived leukemia cell, was observed
cytotoxic effect at 10 μM [6]: most of the cells were killed
lowering of relative cell viability ([6]; Jurkat cell, 1 μM or 10 μM, 8 hours or 24 hours): ≥ 25%
